# Measurements taken from patent publication US9365588B2, “Benzoxazines as modulators of ion channels” (Vertex Pharmaceuticals Incorporated, priority 2011, dated 2016).
# Target: human NaV 1.7 (Homo sapiens, UniProt Q15858)
# Assay: E-VIPR optical membrane potential assay with electrical stimulation
# Assay type: cell-based
# Settings: sodium channel inhibition; read-out: Binned Activity Data (IC50)
# In short: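 Membrane-potential read-out: background-subtracted 460 nm/580 nm ratio during a 9 s current-controlled stimulus, 400 Hz scan. Before stimulation, NaV1.7-HEK cells carried coumarin/oxonol dye and compound (final DMSO 0.625%) for 20–35 min at room temperature; tetracaine 125 μM served as positive control.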
# Chain of human NaV 1.7 (Q15858 whole entry): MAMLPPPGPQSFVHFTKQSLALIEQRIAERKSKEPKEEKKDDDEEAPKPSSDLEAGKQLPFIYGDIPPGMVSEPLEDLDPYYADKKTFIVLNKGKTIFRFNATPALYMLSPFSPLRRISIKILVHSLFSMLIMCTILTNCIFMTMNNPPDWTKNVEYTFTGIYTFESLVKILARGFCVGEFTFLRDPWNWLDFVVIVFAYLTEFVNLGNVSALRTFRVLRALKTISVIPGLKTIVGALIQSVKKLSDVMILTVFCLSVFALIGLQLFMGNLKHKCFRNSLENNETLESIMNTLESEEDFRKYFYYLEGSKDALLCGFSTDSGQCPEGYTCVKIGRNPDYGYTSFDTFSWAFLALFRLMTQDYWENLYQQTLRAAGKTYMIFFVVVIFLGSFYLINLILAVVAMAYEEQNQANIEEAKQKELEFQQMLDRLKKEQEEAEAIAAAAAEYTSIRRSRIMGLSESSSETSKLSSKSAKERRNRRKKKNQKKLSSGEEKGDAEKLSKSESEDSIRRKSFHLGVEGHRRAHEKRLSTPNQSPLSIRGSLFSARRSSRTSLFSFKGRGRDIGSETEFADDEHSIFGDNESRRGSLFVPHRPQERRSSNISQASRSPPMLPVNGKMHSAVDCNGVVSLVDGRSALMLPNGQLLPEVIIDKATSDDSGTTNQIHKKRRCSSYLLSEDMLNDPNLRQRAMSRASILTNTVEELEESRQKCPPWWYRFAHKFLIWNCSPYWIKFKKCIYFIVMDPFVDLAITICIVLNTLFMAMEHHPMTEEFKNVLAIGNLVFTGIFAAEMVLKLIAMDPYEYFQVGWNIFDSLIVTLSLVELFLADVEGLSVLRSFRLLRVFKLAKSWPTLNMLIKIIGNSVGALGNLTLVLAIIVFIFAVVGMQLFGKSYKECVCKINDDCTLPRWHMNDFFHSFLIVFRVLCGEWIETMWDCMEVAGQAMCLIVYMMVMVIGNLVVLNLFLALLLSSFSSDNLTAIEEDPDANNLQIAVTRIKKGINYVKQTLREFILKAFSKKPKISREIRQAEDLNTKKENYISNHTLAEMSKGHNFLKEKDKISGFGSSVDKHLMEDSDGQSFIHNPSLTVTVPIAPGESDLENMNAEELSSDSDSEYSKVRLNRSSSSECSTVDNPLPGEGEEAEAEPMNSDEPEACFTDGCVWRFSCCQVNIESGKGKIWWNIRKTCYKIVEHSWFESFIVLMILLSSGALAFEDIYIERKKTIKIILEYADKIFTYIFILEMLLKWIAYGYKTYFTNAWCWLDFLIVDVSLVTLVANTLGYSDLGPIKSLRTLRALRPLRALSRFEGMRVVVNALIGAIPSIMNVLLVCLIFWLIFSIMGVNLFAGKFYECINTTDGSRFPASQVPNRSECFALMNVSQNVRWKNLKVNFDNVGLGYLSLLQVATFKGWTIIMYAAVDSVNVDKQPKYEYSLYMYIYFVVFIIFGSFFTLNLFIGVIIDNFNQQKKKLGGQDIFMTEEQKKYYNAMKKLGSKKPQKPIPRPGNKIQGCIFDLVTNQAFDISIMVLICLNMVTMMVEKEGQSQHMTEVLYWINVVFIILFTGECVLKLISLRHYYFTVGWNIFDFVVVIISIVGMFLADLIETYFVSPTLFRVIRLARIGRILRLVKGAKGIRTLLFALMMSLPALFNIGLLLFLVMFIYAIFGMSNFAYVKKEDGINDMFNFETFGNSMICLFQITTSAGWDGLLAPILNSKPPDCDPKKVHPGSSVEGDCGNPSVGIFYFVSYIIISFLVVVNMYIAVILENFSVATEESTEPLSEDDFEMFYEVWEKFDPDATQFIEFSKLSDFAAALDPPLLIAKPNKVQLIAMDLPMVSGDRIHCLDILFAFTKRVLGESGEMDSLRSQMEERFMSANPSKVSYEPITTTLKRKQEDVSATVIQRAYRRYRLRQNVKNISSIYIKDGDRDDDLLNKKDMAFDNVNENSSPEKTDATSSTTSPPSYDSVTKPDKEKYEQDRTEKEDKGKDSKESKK
row,Compound,IC50
1,Cc1cc(C(=O)N2CCC3(CC2)Oc2ccccc2-n2c(C#N)ccc23)ccc1S(C)(=O)=O [Compound 509],≤ 2 µM
2,CCc1ccc(C(=O)N2CCC3(CC2)Oc2cc(C#N)ccc2-n2cccc23)cc1OC [Compound 511],≤ 2 µM
3,CC(C)Oc1ccc(C(=O)N2CCC3(CC2)Oc2ccccc2-n2cccc23)cc1C(N)=O [Compound 517],≤ 2 µM
4,CCNS(=O)(=O)c1ccc(C(=O)N2CCC3(CC2)Oc2ccccc2-c2c3cnn2C)cc1 [Compound 521],≤ 2 µM
5,CNS(=O)(=O)c1ccc(C(=O)N2CCC3(CC2)Oc2ccccc2-c2nn(C)cc23)cc1C [Compound 523],≤ 2 µM
6,Cn1ncc2c1-c1ccccc1OC21CCN(C(=O)c2ccc3nc(N)sc3c2)CC1 [Compound 524],≤ 2 µM
7,Cc1cc(C(=O)N2CCC3(CC2)Oc2ccccc2-c2ncn(C)c23)ccc1OC(C)C [Compound 525],≤ 2 µM
8,N#Cc1ccc2n1-c1ccccc1OC21CCN(C(=O)c2ccc(S(=O)(=O)C(F)F)cc2)CC1 [Compound 530],≤ 2 µM
9,CC(C)Oc1ccc(C(=O)N2CCC3(CC2)Oc2ccccc2-n2c(C(F)(F)F)ccc23)cc1CO [Compound 531],≤ 2 µM
10,COc1cc(OC)cc(C(=O)N2CCC3(CC2)Oc2cc(Cl)ccc2-n2cccc23)c1 [Compound 534],≤ 2 µM
11,CC(C)(C)c1ccc(C(=O)N2CCC3(CC2)Oc2cc(F)ccc2-n2cccc23)cc1C#N [Compound 536],≤ 2 µM
12,COc1cc(C(=O)N2CCC3(CC2)Oc2ccccc2-c2c3cnn2C)ccc1C(C)(C)O [Compound 537],≤ 2 µM
13,O=C(c1ccc(S(=O)(=O)NC2CC2)cc1)N1CCC2(CC1)Oc1ccccc1-n1c(C(F)(F)F)ccc12 [Compound 541],≤ 2 µM
14,Cc1cc(C(=O)N2CCC3(CC2)Oc2ccccc2-c2c3cnn2C)ccc1S(=O)(=O)C(C)C [Compound 543],≤ 2 µM

# More lines, now with the values ahead:
row,IC50,Compound
1,≤ 2 µM,COc1cc(C(=O)N2CCC3(CC2)Oc2cc(Cl)ccc2-n2cccc23)ccc1C1CC1 [Compound 512]
2,≤ 2 µM,CS(=O)(=O)c1cccc(C(=O)N2CCC3(CC2)Oc2cc(Cl)ccc2-n2cccc23)c1 [Compound 513]
3,≤ 2 µM,CC(=O)NCc1ccc2n1-c1ccccc1OC21CCN(C(=O)c2ccc(OC(C)C)c(C)c2)CC1 [Compound 514]
4,≤ 2 µM,Cn1ncc2c1-c1ccccc1OC21CCN(C(=O)c2ccc(OC(F)F)cc2OC(F)F)CC1 [Compound 515]
5,≤ 2 µM,Cc1c(CO)cccc1C(=O)N1CCC2(CC1)Oc1ccccc1-n1c(C#N)ccc12 [Compound 516]
6,≤ 2 µM,Cn1ncc2c1-c1ccc(Cl)cc1OC21CCN(C(=O)c2ccccc2OC(F)(F)F)CC1 [Compound 518]
7,≤ 2 µM,COc1cccc(F)c1C(=O)N1CCC2(CC1)Oc1ccccc1-n1c(C#N)ccc12 [Compound 519]
8,≤ 2 µM,Cc1ccc2c(c1)OC1(CCN(C(=O)c3ccc(S(C)(=O)=O)c(C)c3)CC1)c1ccc(C#N)n1-2 [Compound 522]
9,≤ 2 µM,CCn1ncc2c1-c1ccccc1OC21CCN(C(=O)c2cccc(F)c2OC(F)F)CC1 [Compound 528]
10,≤ 2 µM,COc1cc(C(=O)N2CCC3(CC2)Oc2cc(Cl)ccc2-n2cccc23)ccc1C(C)(C)C [Compound 529]
11,≤ 2 µM,COCCOc1cc(F)c(C(=O)N2CCC3(CC2)Oc2ccccc2-n2cccc23)cc1OC [Compound 532]
12,≤ 2 µM,COc1cc(C(=O)N2CCC3(CC2)Oc2cccnc2-n2cccc23)ccc1O[C@@H]1CCOC1 [Compound 533]
13,≤ 2 µM,O=C(c1cccnc1N1CCCC1)N1CCC2(CC1)Oc1ccccc1-n1c(C(F)(F)F)ccc12 [Compound 535]
14,≤ 2 µM,Cc1cc(C(=O)N2CCC3(CC2)Oc2ccccc2-n2cccc23)ccc1OC(C)(C)C [Compound 538]
15,2 to 5 µM,N#Cc1ccc2n1-c1ccccc1OC21CCN(C(=O)c2ccc(S(=O)(=O)NCCCO)cc2)CC1 [Compound 540]
16,2 to 5 µM,COc1ccc(C(=O)N2CCC3(CC2)Oc2ccccc2-n2cccc23)cc1S(N)(=O)=O [Compound 542]
